Source: patent US12370235B2, “Synthetic, non-natural antimicrobial peptides inspired by Staphylococcus auricularis delta toxin” (University of Saskatchewan, priority 2021, dated 2025)
Ends that are not written are not given here.

Columns and labels:
C. albicans MYA-2876 = assay: MIC, YPD broth; format: cell-based, Candida albicans; details: Table 8
Outline: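 Yeast cells were diluted in YPD broth, and 180 μl aliquots were mixed with 20 μl of peptide from 2-fold serial dilutions in flat-bottom 96-well microtitre plates. Wells receiving 20 μl sterile water served as controls. After standing incubation overnight at 37° C, the MIC was taken as the lowest peptide concentration with no visible microbial growth.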

[1] = tested on: Mannheimia haemolytica ATCC 33393; assay: MIC, broth dilution; format: cell-based; details: Table 11; highest concentration 25 μg/mL
Outline: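 Read-out is the lowest peptide concentration showing no growth after an overnight standing culture at 37 °C. Two-fold serial dilutions of 95%-pure peptide were tested against M. haemolytica ATCC 33393 at OD 6×10^−4 in cation-adjusted MH broth.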

[2] = tested on: Saccharomyces cerevisiae AR 400; assay: MIC, YPD broth, CDC and FDA AR Candida isolate panel; format: cell-based
Outline: (§1)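 Peptides of 95% purity were tested as 2-fold dilution series against yeast diluted to an optical density of […]. Cultures stood overnight at 37° C, with sterile water as control.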

[3] = tested on: Candida haemulonii AR 393; assay: as above; format: cell-based; details: Table 9 below the line: only 200 or 100 μg/mL tested; values reported as 100 are ≤100 μg/mL
Outline: as §1

[4] = tested on: Candida lusitaniae AR 398; assay: as above; format: cell-based
Outline: as §1

Candida krusei AR 397 = assay: as above; format: cell-based
Outline: as §1

[5] = tested on: Saccharomyces cerevisiae AR 399; assay: as above; format: cell-based
Outline: as §1

[6] = tested on: Candida duobushaemulonii AR 394; assay: as above; format: cell-based
Outline: as §1

Kodamae ohmeri AR 396 = assay: as above; format: cell-based
Outline: as §1

[7] = tested on: Candida duobushaemulonii AR 391; assay: as above; format: cell-based
Outline: as §1

[8] = tested on: Candida duobushaemulonii AR 392; assay: as above; format: cell-based
Outline: as §1

[9] = tested on: Candida haemulonii AR 395; assay: as above; format: cell-based; details: Table 9 below the line: only 200 or 100 μg/mL tested; values reported as 100 are ≤100 μg/mL
Outline: as §1

[10] = Circular dichroism spectroscopy; format: physicochemical; details: CD, 50% (v/v) TFE
Text: The δ-toxins and the PSMs are characterized as α-helical peptides that form amyloid fibers^48. Although the propensity of individual peptides to form amyloids is correlated to their cytotoxicity^49, the amyloid form is not directly implicated in cell membrane disruption^50. […] CD spectroscopy was used to investigate the secondary structure of a subset of peptides within the collection (FIG. 4A, Table 5). The STIP variants adopted α-helical forms in 50% (v/v) trifluoroethanol (TFE), though unlike the full-length S. auricularis δ-toxin, they were unstructured in water. […] Specifically, peptides characterized by the greatest and least α-helical content in TFE had MICs above the highest tested threshold.
Circular dichroism spectroscopy. Peptides were dissolved in water at concentrations between 0.3 and 0.5 mg/mL. CD spectra were recorded on an Applied Photophysics Chirascan Plus CD spectrophotometer at room temperature in a 0.1 cm path-length quartz cuvette. Spectra were recorded from 180 to 260 nm.

[11] = tested on: S. aureus ATCC BAA-2094 (MRSA SCCmec type V); assay: MIC, broth dilution; format: cell-based, Staphylococcus aureus; details: Table 5; STIP3 variants, highest concentration 100 μg/mL
Outline: (§2)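 Peptides (95% purity) were serially diluted 2-fold and mixed with bacteria diluted to OD 6×10^−4 in cation-adjusted Mueller Hinton broth. Standing cultures were incubated overnight at 37° C. MIC was the lowest peptide concentration with no observed growth.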

[12] = tested on: S. aureus ATCC BAA-42 (MRSA SCCmec type VI); assay: MIC, broth dilution; format: cell-based, Staphylococcus aureus; details: Table 5; STIP3 variants, highest concentration 100 μg/mL
Outline: as §2

[13] = tested on: S. aureus ATCC BAA-41 (MRSA SCCmec type II); assay: MIC, broth dilution; format: cell-based, Staphylococcus aureus; details: Table 5; STIP3 variants, highest concentration 100 μg/mL
Outline: as §2

[14] = tested on: S. aureus ATCC 33592 (MRSA SCCmec type III); assay: MIC, broth dilution; format: cell-based, Staphylococcus aureus; details: Table 5; STIP3 variants, highest concentration 100 μg/mL
Outline: as §2

[15] = tested on: S. aureus ATCC BAA-44 (MRSA SCCmec type I); assay: MIC, broth dilution; format: cell-based, Staphylococcus aureus; details: Table 5; STIP3 variants, highest concentration 100 μg/mL
Outline: as §2

S. aureus ATCC 29213 = assay: MIC, broth dilution; format: cell-based, Staphylococcus aureus; details: Table 5; STIP3 variants, highest concentration 100 μg/mL
Outline: as §2

[16] = tested on: S. aureus ATCC BAA-2313 (MRSA SCCmec type XI); assay: MIC, broth dilution; format: cell-based, Staphylococcus aureus; details: Table 5; STIP3 variants, highest concentration 100 μg/mL
Outline: as §2

[17] = tested on: S. aureus ATCC BAA-1683 (MRSA SCCmec type IV); assay: MIC, broth dilution; format: cell-based, Staphylococcus aureus; details: Table 5; STIP3 variants, highest concentration 100 μg/mL
Outline: as §2

C. albicans Y537 = assay: MIC, YPD broth; format: cell-based, Candida albicans; details: Table 8
[18] = Table 9 below the line: only 200 or 100 μg/mL tested, values reported as 100 are ≤100 μg/mL
[19] = Table 9 top part: titrations from 1.56 to 100 μg/mL

| Sequence | MIC C. albicans MYA-2876 (C. albicans MYA-2876) | MIC (μg/mL) M. haemolytica [1] | MIC (μg/mL) Saccharomyces cerevisiae AR 400 [2, 18] | MIC (μg/mL) Candida haemulonii AR 393 [3] | MIC (μg/mL) Candida lusitaniae AR 398 [4, 18] | MIC (μg/mL) Candida krusei AR 397 (Candida krusei AR 397; [18]) | MIC (μg/mL) Saccharomyces cerevisiae AR 399 [5, 18] | MIC (μg/mL) Candida duobushaemulonii AR 394 [6, 18] | MIC (μg/mL) Kodamae ohmeri AR 396 (Kodamae ohmeri AR 396; [18]) | MIC (μg/mL) Candida duobushaemulonii AR 391 [7, 18] | MIC (μg/mL) Candida duobushaemulonii AR 392 [8, 18] | MIC (μg/mL) Candida haemulonii AR 395 [9] | MIC S. aureus ATCC BAA 2094 (V) [11] | MIC S. aureus ATCC BAA 42 (VI) [12] | MIC S. aureus ATCC BAA 41 (II) [13] | MIC S. aureus ATCC 33592 (III) [14] | MIC S. aureus ATCC BAA 44 (I) [15] | MIC S. aureus ATCC 29213 (S. aureus ATCC 29213) | MIC S. aureus ATCC BAA 2313 (XI) [16] | MIC S. aureus ATCC BAA 1683 (IV) [17] | other results |
| --- | --- | --- | --- | --- | --- | --- | --- | --- | --- | --- | --- | --- | --- | --- | --- | --- | --- | --- | --- | --- | --- |
| TVKGLVKWILATVKKFA [STIP3-16, TVKGLVKWILATVKKFA] | 12.5 µg/mL | 6.25 µg/mL | ≤ 100 µg/mL | > (values below the line were determined using two concentrations of peptide 200 or 100 μg/mL) | ≤ 100 µg/mL | ≤ 100 µg/mL | ≤ 100 µg/mL | > (values below the line were determined using two concentrations of peptide 200 or 100 μg/mL) | ≤ 100 µg/mL | > (values below the line were determined using two concentrations of peptide 200 or 100 μg/mL) | > (values below the line were determined using two concentrations of peptide 200 or 100 μg/mL) | > (values below the line were determined using two concentrations of peptide 200 or 100 μg/mL) | 100 µg/mL | 50 µg/mL | 50 µg/mL | 50 µg/mL | 100 µg/mL | 100 µg/mL | 100 µg/mL | > (no inhibition was observed at the highest concentration of peptide tested: 100 μg/mL for the STIP3 variants) | α helicity (%) [10]: 45% |
| TVKGLVKWILNVVKKFA [STIP3-14, TVKGLVKWILNVVKKFA] | 12.5 µg/mL |  |  |  |  |  |  |  |  |  |  |  | 50 µg/mL | 25 µg/mL | 25 µg/mL | 12.5 µg/mL | 25 µg/mL | 25 µg/mL | 12.5 µg/mL | 25 µg/mL | MIC C. albicans Y537 (C. albicans Y537): 50 µg/mL; MIC (μg/mL) Saccharomyces cerevisiae AR 400 [2, 19]: 6.25 µg/mL; MIC (μg/mL) Candida lusitaniae AR 398 [4, 19]: 6.25 µg/mL; MIC (μg/mL) Candida krusei AR 397 (Candida krusei AR 397; [19]): 12.5 µg/mL; MIC (μg/mL) Saccharomyces cerevisiae AR 399 [5, 19]: 25 µg/mL; MIC (μg/mL) Candida duobushaemulonii AR 394 [6, 19]: 100 µg/mL; MIC (μg/mL) Kodamae ohmeri AR 396 (Kodamae ohmeri AR 396; [19]): 25 µg/mL; MIC (μg/mL) Candida duobushaemulonii AR 391 [7, 19]: 50 µg/mL; MIC (μg/mL) Candida duobushaemulonii AR 392 [8, 19]: 50 µg/mL; α helicity (%) [10]: 64% |
| TVKKLVKWILKTVKKFA [STIP3-18, TVKKLVKWILKTVKKFA] | 50 µg/mL | 6.25 µg/mL | ≤ 100 µg/mL | > (values below the line were determined using two concentrations of peptide 200 or 100 μg/mL) | ≤ 100 µg/mL | ≤ 100 µg/mL | ≤ 100 µg/mL | ≤ 100 µg/mL | > (values below the line were determined using two concentrations of peptide 200 or 100 μg/mL) | ≤ 100 µg/mL | ≤ 100 µg/mL | > (values below the line were determined using two concentrations of peptide 200 or 100 μg/mL) | 100 µg/mL | > (no inhibition was observed at the highest concentration of peptide tested: 100 μg/mL for the STIP3 variants) | 100 µg/mL | 100 µg/mL | 100 µg/mL | 100 µg/mL | > (no inhibition was observed at the highest concentration of peptide tested: 100 μg/mL for the STIP3 variants) | > (no inhibition was observed at the highest concentration of peptide tested: 100 μg/mL for the STIP3 variants) | MIC C. albicans Y537 (C. albicans Y537): > (> symbol indicates that no inhibition was observed at the highest concentration of peptide tested: 100 μg/mL) |
| TVRALVKWILRTVAKFA [STIP3-20, TVRALVKWILRTVAKFA] | > (> symbol indicates that no inhibition was observed at the highest concentration of peptide tested: 100 μg/mL) | 25 µg/mL | 200 µg/mL | > (values below the line were determined using two concentrations of peptide 200 or 100 μg/mL) | > (values below the line were determined using two concentrations of peptide 200 or 100 μg/mL) | > (values below the line were determined using two concentrations of peptide 200 or 100 μg/mL) | > (values below the line were determined using two concentrations of peptide 200 or 100 μg/mL) | > (values below the line were determined using two concentrations of peptide 200 or 100 μg/mL) | > (values below the line were determined using two concentrations of peptide 200 or 100 μg/mL) | > (values below the line were determined using two concentrations of peptide 200 or 100 μg/mL) | > (values below the line were determined using two concentrations of peptide 200 or 100 μg/mL) | > (values below the line were determined using two concentrations of peptide 200 or 100 μg/mL) | 25 µg/mL | 25 µg/mL | 12.5 µg/mL | 25 µg/mL | 25 µg/mL | 25 µg/mL | 50 µg/mL | 25 µg/mL | MIC C. albicans Y537 (C. albicans Y537): > (> symbol indicates that no inhibition was observed at the highest concentration of peptide tested: 100 μg/mL) |
